In patent US12173018B2, “Penicillin-binding protein inhibitors” (priority 2018, dated 2024) one finds MIC and EC50 data, which are given here for seven compounds.

pEC50: −log10 of the molar value. Read-outs that look alike come from different tables or passages of the source.

Assay [1] concerns K. pneumoniae 848844. In words: microbe, parasite or virus in culture. Type of assay: cell-based, Klebsiella pneumoniae. The note with it: Klebsiella pneumoniae; K. pneumoniae 848844 producing SHV-11 and KPC-2; read-out: MIC K. pneumoniae 848844. The essentials:
(§1)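 Following CLSI guidance, growth inhibition is measured in Mueller-Hinton broth with divalent cations. Inoculum 5×10^5 CFU/mL; incubation 16-20 hours, 37° C; endpoint is visual absence of growth.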

Assay [2] has as its system P. aeruginosa PAO1. Put plainly: Broth microdilution MIC, P. aeruginosa PAO1. It counts as cell-based. The conditions noted are these: Pseudomonas aeruginosa. On the procedure:
(§2) To determine the ability of test compounds to potentiate the inhibition of the growth of bacterial strains, classic cell based broth microdilution minimum inhibitory concentration (MIC) assays were employed. MIC assays are performed according to CLSI methods except where otherwise noted (CLSI, 2011 and CLSI, 2009). The reference type strain E. coli ATCC 25922, the wild-type parent strain E. coli AG100, the hyper-permeable E. coli 901C and E. coli D22 and the E. coli AG100A strain lacking the acrAB efflux pump encoding genes were used to determine the ability of the PBP inhibitors to penetrate the outer membrane of gram-negative bacteria and inhibit bacterial growth. […] The P. aeruginosa PAO1, P. aeruginosa ATCC 27853 and A. baumannii ATCC 19606, along with the hyper-permeable P. aeruginosa ATCC 35151 and an engineered efflux pump-compromised strain of P. aeruginosa (ΔmexAB-oprM) were used to determine the ability of PBP inhibitors to penetrate the outer membrane of P. aeruginosa and A. baumannii and assess antibacterial activity against these important gram-negative organisms.
(§3) Briefly, cryo-preserved bacterial cultures of challenge strains are streaked for isolation on appropriate agar medium, in this case Mueller Hinton II agar. Following incubation to allow growth of the colonies, plates are sealed with parafilm and stored refrigerated for up to two weeks. For preparation of assay inoculum and to ensure low variability, at least 5 colonies are picked from the agar plates with an inoculating loop and aseptically transferred to a culture tube containing 3 mL of Mueller-Hinton Broth (supplemented with divalent cations to required levels based on Manufacturers' certification). The broth culture is grown for 3-5 hours at 37° C. with shaking at 200 rpm. Meanwhile, 2-fold serial dilutions of test compounds are conducted in a 96 well plate with a final volume of 75 μL per well at 2-fold the final desired concentration. After the dilution plates are set up the growing cultures are then diluted in a cuvette containing MH II broth and the optical density is measured at 600 nm. The Inoculum is diluted such that 75 μL of this culture in Mueller-Hinton Broth results in a starting bacterial concentration of 5×10^5 CFU/mL when added to the dilution plates. The plates are incubated for 16-20 hours at 37° C. The MIC values are read visually as the lowest concentration well with no bacterial growth.

In assay [3] the target is E. coli PBP3 (Escherichia coli (strain K12), UniProt P0AD68). In words: E. coli PBP3 Bocillin-FL fluorescence polarization competition binding assay. The essentials: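 Polarization at 490/520 nm was monitored for 60 minutes in pH 8.0 Hepes buffer containing 300 mM NaCl and 5% glycerol, with compound spanning 0–1000 μM.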
The test system of assay [4] is A. baumannii ATCC 19606. Put plainly: Broth microdilution MIC, A. baumannii ATCC 19606. It counts as cell-based. The note with it: Acinetobacter baumannii. How it is done: as §2, §3
The test system of assay [5] is E. coli AG100. Put plainly: Broth microdilution MIC, E. coli AG100 (wild-type parent). It counts as cell-based. The note with it: Escherichia coli; wild-type parent E. coli AG100, broth microdilution; read-out: MIC E. coli AG100. The essentials: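 Broth microdilution in cation-supplemented Mueller-Hinton broth, 2-fold serial compound dilutions, inoculum 5×10^5 CFU/mL from 3-5 h log culture.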

The test system of assay [6] is E. coli ATCC 25922. In words: Broth microdilution MIC, E. coli ATCC 25922. Type of assay: cell-based. The conditions noted are these: Escherichia coli. The essentials:
as §1

Assay [7] concerns K. pneumoniae UMM. Put plainly: microbe, parasite or virus in culture. Type of assay: cell-based. The note with it: Klebsiella pneumoniae; K. pneumoniae UMM producing SHV-5 and KPC-2; read-out: MIC K. pneumoniae UMM. In short, it runs like this:
as §1

For assay [8], the system named is E. coli D22. In words: microbe, parasite or virus in culture. It counts as cell-based. The conditions noted are these: Escherichia coli; hyper-permeable E. coli D22, broth microdilution; read-out: MIC E. coli D22. The essentials:
as §1

Assay [9] relates to P. aeruginosa ATCC 35151. In words: microbe, parasite or virus in culture. It counts as cell-based. The note with it: Pseudomonas aeruginosa, ATCC35151; hyper-permeable P. aeruginosa ATCC 35151; read-out: MIC P. aeruginosa ATCC 35151. In short, it runs like this:
as §1

In assay [10] the test system is K. pneumoniae SI-117. Put plainly: microbe, parasite or virus in culture. Type of assay: cell-based. The conditions noted are these: Klebsiella pneumoniae, SI117, read-out: MIC K. pneumoniae SI-117. The essentials:
as §1

The subject of assay [11] is E. coli 901C. Put plainly: microbe, parasite or virus in culture. Type of assay: cell-based. The note with it: Escherichia coli; hyper-permeable E. coli 901C, broth microdilution; read-out: MIC E. coli 901C. In short, it runs like this: as §1
Assay [12] concerns P. aeruginosa (ΔmexAB-oprM). Put plainly: microbe, parasite or virus in culture. It counts as cell-based. The note with it: Pseudomonas aeruginosa, read-out: MIC P. aeruginosa ΔmexAB-OprM. In short, it runs like this: as §1
For assay [13], the system named is E. coli AG100A. Put plainly: microbe, parasite or virus in culture. It counts as cell-based. The conditions noted are these: Escherichia coli, read-out: MIC E. coli AG100A. In short, it runs like this:
as §1

The mark [14] stands for this setting: P. aeruginosa PAO1, broth microdilution, read-out: MIC P. aeruginosa PAO1.
The mark [15] stands for this setting: ATCC19606, A. baumannii ATCC 19606, broth microdilution, read-out: MIC A. baumannii ATCC 19606.
The mark [16] stands for this setting: ATCC25922, E. coli ATCC 25922, broth microdilution, read-out: MIC E. coli 25922.
The mark [17] stands for this setting: fluorescence polarization competition binding with Bocillin-FL, read-out: E. coli K12 PBP3 Potency.

Sequence of E. coli PBP3 (P0AD68 whole entry): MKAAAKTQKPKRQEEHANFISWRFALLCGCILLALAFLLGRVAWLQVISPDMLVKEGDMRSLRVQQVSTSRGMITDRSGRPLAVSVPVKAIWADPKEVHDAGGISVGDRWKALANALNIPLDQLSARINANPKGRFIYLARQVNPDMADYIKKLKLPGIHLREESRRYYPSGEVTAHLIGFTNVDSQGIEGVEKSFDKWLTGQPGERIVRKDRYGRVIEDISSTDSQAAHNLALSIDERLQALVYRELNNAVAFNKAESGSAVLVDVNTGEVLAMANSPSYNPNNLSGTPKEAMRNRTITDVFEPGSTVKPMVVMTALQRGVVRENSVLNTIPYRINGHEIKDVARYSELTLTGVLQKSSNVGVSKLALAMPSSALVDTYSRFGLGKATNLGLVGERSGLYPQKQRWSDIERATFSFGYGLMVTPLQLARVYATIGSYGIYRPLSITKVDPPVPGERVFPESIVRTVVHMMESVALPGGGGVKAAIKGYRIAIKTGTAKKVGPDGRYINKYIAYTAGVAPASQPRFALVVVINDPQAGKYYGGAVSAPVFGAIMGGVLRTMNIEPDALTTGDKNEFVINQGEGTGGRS

Regarding `CCN1CCN(C(=O)NC(C(=O)N[C@H]2Cc3ccc(F)c(C(=O)O)c3OB2O)c2ccc(O)cn2)C(=O)C1=O` (stereo partly drawn) [Example 128, (3R)-3-(2-(4-ethyl-2,3-dioxopiperazine-1-carboxamido)-2-(5-hydroxypyridin-2-yl)acetamido)-7-fluoro-2-hydroxy-3,4-dihydro-2H-benzo[e][1,2]oxaborinine-8-carboxylic acid], the MIC was 32 to 64 mg/L in [1]; over 128 mg/L in [2] (setting [14]); over 128 mg/L in assay [4] (setting [15]); 8 to 16 mg/L in assay [5]; 32 to 64 mg/L in assay [6] (setting [16]); 8 to 16 mg/L in [7]. Moreover, the MIC in assay [8] lay in the range of 2 to 4 mg/L; in [9], 0.5 to 1 mg/L; in [10] it was 8 to 16 mg/L; in [11] it was 0.5 to 1 mg/L; in [12], 8 to 16 mg/L; in assay [13] it was 2 to 4 mg/L. This compound also showed a pEC50 in [3] of 3.30 to 4.52.

With `CCN1CCN(C(=O)N[C@@H](C(=O)N[C@H]2Cc3cccc(C(=O)O)c3OB2O)c2ccc(S(N)(=O)=O)c(OC)c2)C(=O)C1=O` [Example 169, (R)-3-((R)-2-(4-ethyl-2,3-dioxopiperazine-1-carboxamido)-2-(3-methoxy-4-sulfamoylphenyl)acetamido)-2-hydroxy-3,4-dihydro-2H-benzo[e][1,2]oxaborinine-8-carboxylic acid], the MIC in [1] was over 128 mg/L; in [2] (setting [14]), over 128 mg/L; in [4] (setting [15]), over 128 mg/L; in assay [5] it was 32 to 64 mg/L; in [6] (setting [16]), 32 to 64 mg/L; in assay [7], over 128 mg/L. The MIC in [8] was 2 to 4 mg/L; in assay [9], 0.5 to 1 mg/L; in assay [10], over 128 mg/L; in assay [11] it was under 0.25 mg/L; in [12], 8 to 16 mg/L; in assay [13] it was 8 to 16 mg/L. This compound gave a pEC50 in [3] of 3.30 to 4.52.

For the compound `NS(=O)(=O)c1ccc([C@@H](NC(=O)N2CCN(CCBr)C(=O)C2=O)C(=O)N[C@H]2Cc3cccc(C(=O)O)c3OB2O)cc1O` [Example 172, (R)-3-((R)-2-(4-(2-bromoethyl)-2,3-dioxopiperazine-1-carboxamido)-2-(3-hydroxy-4-sulfamoylphenyl)acetamido)-2-hydroxy-3,4-dihydro-2H-benzo[e][1,2]oxaborinine-8-carboxylic acid], the MIC in assay [1] is over 128 mg/L; in assay [2] (PAO1, read-out: MIC P. aeruginosa PAO1), over 128 mg/L; in assay [4] (ATCC19606, read-out: MIC A. baumannii ATCC 19606), over 128 mg/L; in assay [5], 32 to 64 mg/L; in [6] (ATCC25922, read-out: MIC E. coli 25922) it was 32 to 64 mg/L; in assay [7] it was 32 to 64 mg/L. For the same compound, the MIC in assay [8] is 8 to 16 mg/L; in assay [9], under 0.25 mg/L; in [10] it was over 128 mg/L; in [11], 0.5 to 1 mg/L; in assay [12] it was 2 to 4 mg/L; in assay [13] it was 8 to 16 mg/L. In assay [3] (setting [17]), the pEC50 was over 4.52.

For `CCN1CCN(C(=O)NC(C(=O)N[C@H]2Cc3c(F)cc(F)c(C(=O)O)c3OB2O)c2ccc(O)c(O)c2Cl)C(=O)C1=O` (stereo partly drawn) [Example 185, (3R)-3-(2-(2-chloro-3,4-dihydroxyphenyl)-2-(4-ethyl-2,3-dioxopiperazine-1-carboxamido)acetamido)-5,7-difluoro-2-hydroxy-3,4-dihydro-2H-benzo[e][1,2]oxaborinine-8-carboxylic acid], the MIC in [1] is 0.5 to 1 mg/L; in assay [2] (setting [14]), over 128 mg/L; in assay [4] (setting [15]) it was over 128 mg/L; in [5] it was 2 to 4 mg/L; in assay [6] (setting [16]), 8 to 16 mg/L; in [7] it was 2 to 4 mg/L. Also, the MIC in assay [8] is 2 to 4 mg/L; in [9], under 0.25 mg/L; in assay [10], 2 to 4 mg/L; in assay [11] it was 0.5 to 1 mg/L; in assay [12], 0.5 to 1 mg/L; in [13], 2 to 4 mg/L. Further, in assay [3], the pEC50 was 3.30 to 4.52.

On to `CCN1CCN(C(=O)NC(C(=O)N[C@H]2Cc3cccc(C(=O)O)c3OB2O)c2ccc(S(N)(=O)=O)cc2F)C(=O)C1=O` (stereo partly drawn) [Example 203, (3R)-3-(2-(4-ethyl-2,3-dioxopiperazine-1-carboxamido)-2-(2-fluoro-4-sulfamoylphenyl)acetamido)-2-hydroxy-3,4-dihydro-2H-benzo[e][1,2]oxaborinine-8-carboxylic acid], for which the MIC is over 128 mg/L in assay [1]; over 128 mg/L in assay [2] (setting [14]); over 128 mg/L in [4] (setting [15]); 32 to 64 mg/L in assay [5]; 32 to 64 mg/L in assay [6] (setting [16]); 32 to 64 mg/L in [7]. Further, the MIC in assay [8] was 2 to 4 mg/L; in assay [9], 0.5 to 1 mg/L; in assay [10], over 128 mg/L; in assay [11], under 0.25 mg/L; in [12], 8 to 16 mg/L; in assay [13], 2 to 4 mg/L. Further, the pEC50 in assay [3] (setting [17]) was over 4.52.

Regarding `O=C(O)c1cccc2c1OB(O)[C@@H](NC(=O)C(NC(=O)N1C[C@@H]3CCCN3C(=O)C1=O)c1ccc(O)c(O)c1Cl)C2` (stereo partly drawn) [Example 222, (3R)-3-(2-(2-chloro-3,4-dihydroxyphenyl)-2-((S)-3,4-dioxooctahydropyrrolo[1,2-a]pyrazine-2-carboxamido)acetamido)-2-hydroxy-3,4-dihydro-2H-benzo[e][1,2]oxaborinine-8-carboxylic acid], the MIC in assay [1] was over 128 mg/L; in assay [2] (setting [14]) it was 8 to 16 mg/L; in assay [4] (setting [15]), 32 to 64 mg/L; in assay [5], 32 to 64 mg/L; in [6] (setting [16]), over 128 mg/L; in assay [7], 32 to 64 mg/L. Also, the MIC in assay [8] is over 128 mg/L; in assay [9], under 0.25 mg/L; in assay [10] it was over 128 mg/L; in assay [11], 32 to 64 mg/L; in assay [12] it was under 0.25 mg/L; in [13], 32 to 64 mg/L. In assay [3], the pEC50 is 3.30 to 4.52.

With `NCCN1CCN(C(=O)N[C@H](C(=O)N[C@H]2Cc3ccc(F)c(C(=O)O)c3OB2O)c2ncc(O)cc2F)C(=O)C1=O` [Example 231, (R)-3-((S)-2-(4-(2-aminoethyl)-2,3-dioxopiperazine-1-carboxamido)-2-(3-fluoro-5-hydroxypyridin-2-yl)acetamido)-7-fluoro-2-hydroxy-3,4-dihydro-2H-benzo[e][1,2]oxaborinine-8-carboxylic acid], the MIC was 32 to 64 mg/L in [1]; over 128 mg/L in assay [2] (setting [14]); over 128 mg/L in assay [4] (setting [15]); 32 to 64 mg/L in assay [5]; 32 to 64 mg/L in assay [6] (setting [16]); 32 to 64 mg/L in assay [7]. Also, the MIC fell in the range of 8 to 16 mg/L in [8]; 0.5 to 1 mg/L in [9]; 32 to 64 mg/L in [10]; 2 to 4 mg/L in [11]; 8 to 16 mg/L in assay [12]; 8 to 16 mg/L in assay [13]. The pEC50 in assay [3] was 3.30 to 4.52.
